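48-hour exposure; five concentrations; linearly interpolated endpoints. At the GI50, growth is halved.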 Activity calls are given as the source filed them. Rule as the data show it: active = GI50 up to about 1.1 µM and inactive = higher.
Key:
Assay in all cases: NCI-60 cell line screen, 48 h
HCC 2998 = system: HCC 2998
HL-60 = system: HL-60
HOP-62 = system: HOP-62
HOP-92 = system: HOP-92
HT-29 = system: HT-29
KM12 = system: KM12
M14 = system: M14
MCF7 = system: MCF7
MDA-MB-435 = system: MDA-MB-435
OVCAR-3 = system: OVCAR-3
OVCAR-8 = system: OVCAR-8
SF-295 = system: SF-295
SF-539 = system: SF-539
SK-MEL-28 = system: SK-MEL-28
SK-MEL-2 = system: SK-MEL-2
SN12C = system: SN12C
SNB-75 = system: SNB-75
UACC-257 = system: UACC-257
UACC-62 = system: UACC-62

Compound	GI50 (HCC 2998)	GI50 (HL-60)	GI50 (HOP-62)	GI50 (HOP-92)	GI50 (HT-29)	GI50 (KM12)	GI50 (M14)	GI50 (MCF7)	GI50 (MDA-MB-435)	GI50 (OVCAR-3)	GI50 (OVCAR-8)	GI50 (SF-295)	GI50 (SF-539)	GI50 (SK-MEL-28)	GI50 (SK-MEL-2)	GI50 (SN12C)	GI50 (SNB-75)	GI50 (UACC-257)	GI50 (UACC-62)
Cc1cc(C(C)(C)C)c(OCCCN2CCOCC2)c(C(C)(C)C)c1	16.7 µM (inactive)	14.1 µM (inactive)	19.5 µM (inactive)	20.4 µM (inactive)	16.3 µM (inactive)	17.5 µM (inactive)	16.8 µM (inactive)	18.6 µM (inactive)	19.4 µM (inactive)	19.2 µM (inactive)	20.2 µM (inactive)	17.5 µM (inactive)	18.7 µM (inactive)	16.4 µM (inactive)	16.5 µM (inactive)	17.8 µM (inactive)	16.7 µM (inactive)	17.3 µM (inactive)	16 µM (inactive)
CC(=O)OCCc1cc2ccccc2oc1=O	> 100 µM (inactive)	> 100 µM (inactive)	> 100 µM (inactive)	> 100 µM (inactive)	> 100 µM (inactive)	> 100 µM (inactive)	> 100 µM (inactive)	> 100 µM (inactive)	> 100 µM (inactive)	> 100 µM (inactive)	> 100 µM (inactive)	> 100 µM (inactive)	> 100 µM (inactive)	> 100 µM (inactive)	> 100 µM (inactive)	> 100 µM (inactive)	> 100 µM (inactive)	> 100 µM (inactive)	> 100 µM (inactive)
CC(=O)OCC1OC(n2c(-c3cccs3)c3c(c(C#N)c2=S)-c2ccccc2CC3)C(OC(C)=O)C(OC(C)=O)C1OC(C)=O (configuration not stated)	8.73 µM (inactive)	2.64 µM (inactive)	11.9 µM (inactive)	2.51 µM (inactive)	5.31 µM (inactive)	9.14 µM (inactive)	7.67 µM (inactive)	6.01 µM (inactive)	2.77 µM (inactive)	10.4 µM (inactive)	5.38 µM (inactive)	13.7 µM (inactive)	9.57 µM (inactive)	13.7 µM (inactive)	5.48 µM (inactive)	20.2 µM (inactive)	1.36 µM (inactive)	12.8 µM (inactive)	4.17 µM (inactive)
CCN(CC)CCNc1ccc2ncn3c4cc(OC)c(OC)c(O)c4c(=O)c1c23	10.5 µM (inactive)	11 µM (inactive)	11.4 µM (inactive)	1.61 µM (inactive)	3.8 µM (inactive)	7 µM (inactive)	14.2 µM (inactive)	2.88 µM (inactive)	10 µM (inactive)	13 µM (inactive)	5.3 µM (inactive)	10.4 µM (inactive)	9.06 µM (inactive)	14.4 µM (inactive)	20.4 µM (inactive)	6.47 µM (inactive)	2.78 µM (inactive)	22.9 µM (inactive)	16.6 µM (inactive)
CC1OC(OC2C(O[C@H]3CC[C@@]4(C)C(=CC[C@H]5[C@@H]6C[C@@H]7O[C@]8(CC[C@@H](C)CO8)[C@@H](C)[C@@H]7[C@@]6(C)CC[C@@H]54)C3)OC(CO)C(O)C2O)C(O)C(O)C1O (some centres not stated)	1.11 µM (active)	0.74 µM (active)	1.34 µM (inactive)	2.95 µM (inactive)	0.962 µM (active)	0.838 µM (active)	1.22 µM (inactive)	1.82 µM (inactive)	1.41 µM (inactive)	3.4 µM (inactive)	1.45 µM (inactive)	1.15 µM (inactive)	1.21 µM (inactive)	5.31 µM (inactive)	2.63 µM (inactive)	1.1 µM (active)	1.24 µM (inactive)	1.8 µM (inactive)	1.4 µM (inactive)
CCn1c2ccccc2c2cc(NC(=O)c3c(C)nc(O)nc3NCCNCCO)ccc21	> 100 µM (inactive)	1.58 µM (inactive)	> 100 µM (inactive)	> 100 µM (inactive)	> 100 µM (inactive)	> 100 µM (inactive)	> 100 µM (inactive)	> 100 µM (inactive)	> 100 µM (inactive)	> 100 µM (inactive)	> 100 µM (inactive)	> 100 µM (inactive)	> 100 µM (inactive)	> 100 µM (inactive)		> 100 µM (inactive)	> 100 µM (inactive)	> 100 µM (inactive)	> 100 µM (inactive)
Cc1ccc(/N=N/NCCCCN)cc1	> 100 µM (inactive)	3.79 µM (inactive)	> 100 µM (inactive)	> 100 µM (inactive)	> 100 µM (inactive)	81.7 µM (inactive)	> 100 µM (inactive)	> 100 µM (inactive)	> 100 µM (inactive)		> 100 µM (inactive)	19.3 µM (inactive)	> 100 µM (inactive)		> 100 µM (inactive)	> 100 µM (inactive)	> 100 µM (inactive)	> 100 µM (inactive)	> 100 µM (inactive)
COc1cc2ccc1OCc1cccc(n1)COc1ccc(cc1OC)/C=N\CCNCC/N=C\2	> 100 µM (inactive)	> 100 µM (inactive)	> 100 µM (inactive)	48.4 µM (inactive)	> 100 µM (inactive)		> 100 µM (inactive)	> 100 µM (inactive)	> 100 µM (inactive)	> 100 µM (inactive)	> 100 µM (inactive)	41.7 µM (inactive)	> 100 µM (inactive)	> 100 µM (inactive)	> 100 µM (inactive)	> 100 µM (inactive)	30.5 µM (inactive)	> 100 µM (inactive)	
O=C(N/N=C/c1ccccc1O)c1ccccc1Nc1ccccc1C(=O)N/N=C/c1ccccc1O	> 100 µM (inactive)	1.69 µM (inactive)	0.432 µM (active)	2.26 µM (inactive)	0.518 µM (active)	1.38 µM (inactive)	0.953 µM (active)	0.583 µM (active)	2.41 µM (inactive)	0.0546 µM (active)	0.647 µM (active)	0.975 µM (active)	2.19 µM (inactive)	0.182 µM (active)			3.09 µM (inactive)	2.97 µM (inactive)	1.05 µM (active)
N#CC(c1ccccc1)N(CCc1ccccc1)C(=O)c1ccc(C(=O)N(CCc2ccccc2)C(C#N)c2ccccc2)cc1 (configuration not stated)	15.3 µM (inactive)	22.9 µM (inactive)		12.9 µM (inactive)	19 µM (inactive)	32.9 µM (inactive)	24.4 µM (inactive)	30.3 µM (inactive)	22.9 µM (inactive)	17.1 µM (inactive)	17.6 µM (inactive)	18.5 µM (inactive)	19.5 µM (inactive)	22.8 µM (inactive)	19.6 µM (inactive)	19.5 µM (inactive)	19.3 µM (inactive)	18.1 µM (inactive)	15.5 µM (inactive)
Cc1c2c3cc(O)ccc3nc-2n(C)c2ccccc12	2.77 µM (inactive)	2.34 µM (inactive)	1.5 µM (inactive)	1.93 µM (inactive)	1.1 µM (active)	1.69 µM (inactive)	1.58 µM (inactive)	2.21 µM (inactive)	1.36 µM (inactive)	2.37 µM (inactive)	0.755 µM (active)	1.59 µM (inactive)	1.7 µM (inactive)	2.06 µM (inactive)		0.875 µM (active)	2.45 µM (inactive)	2.69 µM (inactive)	1.39 µM (inactive)
CCCCc1ccc(Nc2nc(Cl)c3c(ncn3C3CC(Oc4ccc(C)cc4)C(COc4ccc(C)cc4)O3)n2)cc1 (configuration not stated)	> 100 µM (inactive)	87.7 µM (inactive)	> 100 µM (inactive)	> 100 µM (inactive)	> 100 µM (inactive)	> 100 µM (inactive)	> 100 µM (inactive)	39.3 µM (inactive)	> 100 µM (inactive)	> 100 µM (inactive)	> 100 µM (inactive)	> 100 µM (inactive)	61 µM (inactive)		> 100 µM (inactive)	> 100 µM (inactive)	22.8 µM (inactive)	> 100 µM (inactive)	> 100 µM (inactive)
Cc1ccc(S(=O)(=O)N/N=C2\CCC3(O)CC2(C)CCC2C3CC2(C)C)cc1 (configuration not stated)	46.3 µM (inactive)	> 100 µM (inactive)	92.7 µM (inactive)	28.4 µM (inactive)	34.4 µM (inactive)	35.6 µM (inactive)	47.9 µM (inactive)	39.6 µM (inactive)	40.5 µM (inactive)	37.8 µM (inactive)	43.8 µM (inactive)	33 µM (inactive)	51.1 µM (inactive)	31.1 µM (inactive)	18.7 µM (inactive)	57.8 µM (inactive)		37.1 µM (inactive)	36.6 µM (inactive)
Nc1ncnc2oc(C3OC(COC(=O)c4ccccc4)C(OC(=O)c4ccccc4)C3OC(=O)c3ccccc3)nc12 (configuration not stated)	> 100 µM (inactive)	> 100 µM (inactive)	> 100 µM (inactive)	> 100 µM (inactive)	> 100 µM (inactive)	> 100 µM (inactive)	> 100 µM (inactive)	> 100 µM (inactive)	> 100 µM (inactive)	> 100 µM (inactive)	> 100 µM (inactive)	> 100 µM (inactive)	> 100 µM (inactive)	> 100 µM (inactive)		> 100 µM (inactive)	29.2 µM (inactive)	> 100 µM (inactive)	74.8 µM (inactive)
C[Si](C)(C)OC1c2[nH]c3ccccc3c2CN2C(=O)CCC12 (configuration not stated)	> 100 µM (inactive)	> 100 µM (inactive)	> 100 µM (inactive)	> 100 µM (inactive)	> 100 µM (inactive)	> 100 µM (inactive)	> 100 µM (inactive)	> 100 µM (inactive)	> 100 µM (inactive)	> 100 µM (inactive)	> 100 µM (inactive)		> 100 µM (inactive)	> 100 µM (inactive)	> 100 µM (inactive)	> 100 µM (inactive)	> 100 µM (inactive)	> 100 µM (inactive)	> 100 µM (inactive)

From ChEMBL document CHEMBL1201862, “PubChem BioAssay data set” (2004)
